Measured values as given in US20230373985A1 (Origenis Gmbh, priority 2020, published 2023).

Columns and labels:
Assay type in all cases: biochemical
[1] = biological target: T1, wt human JAK2, catalytic site (Homo sapiens, UniProt O60674); test: HTRF KinEASE assay, JAK2; settings: assay format not given (Z'-LYTE or HTRF KinEASE); read-out: IC50, Activity Toward JAK2
T1 construct: wt human JAK2, catalytic site; purchased SignalChem
Procedure: Basic protocol for HTRF KinEASE assay (Cisbio/FRA) inhibitor studies involved two steps: • Enzymatic step: Addition of 4 μL of test compound in corresponding DMSO dilutions, 4 μL of kinase/substrate mixture, 2 μL of ATP into 384 well small volume plates. Incubation for at least 30 minutes at room temperature. • Detection step: Addition of 5 μL antibody and 5 μL streptavidin-XL665, read plate after 60 minutes. Data analysis of emission ratios according KinEASE assay protocol.
(§1) Kinase and assay components were adjusted to final concentrations according to kit protocol. For TYK2: 2 nM wt human TYK2, catalytic site (SignalChem/CAN), 1 μM HTRF KinEASE-TK Substrate-biotin, 1 μM ATP in 1× Kinase Buffer. For JAK1: 4 nM wt human JAK1, catalytic site (ThermoFisher/USA), 1 μM HTRF KinEASE-TK Substrate-biotin, 2.5 μM ATP in 1× Kinase Buffer. For JAK2: 1 nM wt human JAK2, catalytic site (SignalChem/CAN), 1 μM HTRF KinEASE-TK Substrate-biotin, 100 μM ATP in 1× Kinase Buffer.
as §1

[2] = biological target: T2, wt human TYK2, catalytic site (Homo sapiens, UniProt P29597); test: HTRF KinEASE assay, TYK2; settings: 1 μM ATP; read-out: IC50, Activity Toward TYK2
T2 construct: wt human TYK2, catalytic site; purchased SignalChem
T2 sequence (P29597 897-1176 limits assumed): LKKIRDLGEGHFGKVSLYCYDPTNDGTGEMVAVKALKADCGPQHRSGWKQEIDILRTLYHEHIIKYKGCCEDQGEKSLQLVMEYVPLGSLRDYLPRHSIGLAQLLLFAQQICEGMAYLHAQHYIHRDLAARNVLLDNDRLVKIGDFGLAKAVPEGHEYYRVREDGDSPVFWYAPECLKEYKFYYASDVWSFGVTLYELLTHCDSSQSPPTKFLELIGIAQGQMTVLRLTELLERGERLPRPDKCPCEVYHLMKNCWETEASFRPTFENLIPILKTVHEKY
Summary of the method: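 HTRF KinEASE-TK readout with 1 μM biotinylated TK substrate in 1× kinase buffer, ≥30 min at room temperature, then antibody/streptavidin-XL665 detection for 60 min. TYK2 at 2 nM with 1 μM ATP; JAK2 at 1 nM with 100 μM ATP. Analysis uses emission ratios.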

[3] = biological target: T3, wt human JAK1, catalytic site (Homo sapiens, UniProt P23458); test: HTRF KinEASE assay, JAK1; settings: 2.5 μM ATP; read-out: IC50, Activity Toward JAK1
T3 construct: wt human JAK1, catalytic site; purchased ThermoFisher
Summary of the method: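 Two-step HTRF KinEASE assay: compound, kinase/biotinylated TK substrate and ATP were incubated at least 30 min at room temperature. Antibody plus streptavidin-XL665 was then added and plates were read after 60 min. Inhibition was derived from emission ratios according to the kit protocol.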

T1 sequence (O60674 849-1124 limits assumed): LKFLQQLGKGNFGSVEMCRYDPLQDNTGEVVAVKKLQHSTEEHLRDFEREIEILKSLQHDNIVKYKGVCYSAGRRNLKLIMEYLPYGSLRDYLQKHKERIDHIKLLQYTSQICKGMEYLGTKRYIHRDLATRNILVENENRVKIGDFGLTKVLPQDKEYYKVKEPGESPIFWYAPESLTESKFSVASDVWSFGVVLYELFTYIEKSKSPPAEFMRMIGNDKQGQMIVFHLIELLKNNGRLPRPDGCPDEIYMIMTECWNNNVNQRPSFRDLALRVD
T3 sequence (P23458 875-1153 limits assumed): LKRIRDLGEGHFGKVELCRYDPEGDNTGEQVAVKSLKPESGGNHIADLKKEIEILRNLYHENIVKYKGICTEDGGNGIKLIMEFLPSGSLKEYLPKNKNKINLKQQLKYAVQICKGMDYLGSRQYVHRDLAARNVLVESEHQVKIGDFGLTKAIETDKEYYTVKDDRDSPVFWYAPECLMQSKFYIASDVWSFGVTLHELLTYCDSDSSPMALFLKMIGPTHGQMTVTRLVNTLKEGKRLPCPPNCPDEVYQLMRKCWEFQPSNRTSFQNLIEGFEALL

IC50 [1] [µM] | IC50 [2] [µM] | IC50 [3] [µM] | Compound
0.1 to 1 | 0.01 to 0.1 | 0.01 to 0.1 | NC(=O)c1nn(-c2c(Cl)cccc2Cl)nc1Nc1ccc(OC2CCNCC2)cc1 [Compound No. 120, 2-(2,6-dichlorophenyl)-5-((4-(piperidin-4-yloxy)phenyl)amino)-2H-1,2,3-triazole-4-carboxamide]
0.1 to 1 | 0.01 to 0.1 | 0.1 to 1 | CC(C)n1ncnc1-c1ccc(Nc2cn(-c3c(Cl)cccc3Cl)nc2C(N)=O)cc1 [compound 90, 1-(2,6-dichlorophenyl)-4-((4-(1-isopropyl-1H-1,2,4-triazol-5-yl)phenyl)amino)-1H-pyrazole-3-carboxamide]
0.1 to 1 | 0.01 to 0.1 | 0.01 to 0.1 | NC(=O)c1nn(-c2c(Cl)cccc2Cl)cc1Nc1ccc(C(=O)N2CCCC2)cc1 [compound 94, 1-(2,6-dichlorophenyl)-4-((4-(pyrrolidine-1-carbonyl)phenyl)amino)-1H-pyrazole-3-carboxamide]
0.1 to 1 | 0.01 to 0.1 | 0.01 to 0.1 | Cn1ncnc1-c1ccc(Nc2cn(-c3c(Cl)cccc3Cl)nc2C(N)=O)cc1 [compound 96, 1-(2,6-dichlorophenyl)-4-((4-(1-methyl-1H-1,2,4-triazol-5-yl)phenyl)amino)-1H-pyrazole-3-carboxamide]
0.1 to 1 | < 0.01 | 0.1 to 1 | N#CC1CN(C(=O)c2ccc(Nc3nn(-c4c(Cl)cccc4Cl)nc3C(N)=O)cc2)C1 [compound 107, 5-[4-(3-Cyano-azetidine-1-carbonyl)-phenylamino]-2-(2,6-dichloro-phenyl)-2H-[1,2,3]triazole-4-carboxylic acid amide]
0.1 to 1 | < 0.01 | 0.01 to 0.1 | NC(=O)c1nn(-c2c(Cl)cccc2Cl)nc1Nc1ccc(-c2nnc3n2CCCC3)cc1 [compound 109, 2-(2,6-Dichloro-phenyl)-5-[4-(5,6,7,8-tetrahydro-[1,2,4]triazolo[4,3-a]pyridin-3-yl)-phenylamino]-2H-[1,2,3]triazole-4-carboxylic acid amide]
0.1 to 1 | < 0.01 | < 0.01 | CN1CCC(Oc2ccc(Nc3nn(-c4c(Cl)cccc4Cl)nc3C(N)=O)cc2)CC1 [compound 114, 2-(2,6-dichlorophenyl)-5-((4-((1-methylpiperidin-4-yl)oxy)phenyl)amino)-2H-1,2,3-triazole-4-carboxamide]
0.1 to 1 | 0.01 to 0.1 | 0.01 to 0.1 | Cn1cnnc1-c1ccc(Nc2nn(-c3c(Cl)cccc3Cl)nc2C(N)=O)cc1 [compound 117, 2-(2,6-dichlorophenyl)-5-((4-(4-methyl-4H-1,2,4-triazol-3-yl)phenyl)amino)-2H-1,2,3-triazole-4-carboxamide]
0.1 to 1 | 0.01 to 0.1 | 0.01 to 0.1 | COCCCNC(=O)c1ccc(Nc2nn(-c3c(Cl)cccc3Cl)nc2C(N)=O)cc1 [compound 119, 2-(2,6-dichlorophenyl)-5-((4-((3-methoxypropyl)carbamoyl)phenyl)amino)-2H-1,2,3-triazole-4-carboxamide]
0.1 to 1 | < 0.01 | 0.01 to 0.1 | NC(=O)c1nn(-c2c(Cl)cccc2Cl)nc1Nc1ccc(C(=O)N2CC(O)C2)cc1 [compound 124, 2-(2,6-dichlorophenyl)-5-((4-(3-hydroxyazetidine-1-carbonyl)phenyl)amino)-2H-1,2,3-triazole-4-carboxamide]
0.1 to 1 | 0.01 to 0.1 | < 0.01 | NC(=O)c1nn(-c2c(Cl)ccc(F)c2Cl)nc1Nc1ccc(C(=O)N2CCOCC2)cc1 [compound 138, 2-(2,6-dichloro-3-fluorophenyl)-5-((4-(morpholine-4-carbonyl)phenyl)amino)-2H-1,2,3-triazole-4-carboxamide]
0.1 to 1 | 0.01 to 0.1 | < 0.01 | NC(=O)c1nn(-c2c(Cl)ccc(F)c2Cl)nc1Nc1ccc(C(=O)N2CC[C@@H](F)C2)cc1 [compound 145, (R)-2-(2,6-dichloro-3-fluorophenyl)-5-((4-(3-fluoropyrrolidine-1-carbonyl)phenyl)amino)-2H-1,2,3-triazole-4-carboxamide]
0.1 to 1 | 0.01 to 0.1 | < 0.01 | NC(=O)c1nn(-c2c(F)ccc(F)c2Cl)nc1Nc1ccc(C(=O)N2CC[C@@H](F)C2)cc1 [compound 147, (R)-2-(2-chloro-3,6-difluorophenyl)-5-((4-(3-fluoropyrrolidine-1-carbonyl)phenyl)amino)-2H-1,2,3-triazole-4-carboxamide]
0.1 to 1 | < 0.01 | 0.01 to 0.1 | N#Cc1cccc(Cl)c1-n1nc(Nc2ccc(C(=O)N3CC[C@@H](F)C3)cc2)c(C(N)=O)n1 [compound 162, (R)-2-(2-chloro-6-cyanophenyl)-5-((4-(3-fluoropyrrolidine-1-carbonyl)phenyl)amino)-2H-1,2,3-triazole-4-carboxamide]
0.1 to 1 | < 0.01 | < 0.01 | NC(=O)c1nn(-c2c(Cl)cccc2Cl)nc1Nc1ccc(C(=O)N2CCS(=O)(=O)CC2)cc1 [compound 163, 2-(2,6-dichlorophenyl)-5-((4-(1,1-dioxidothiomorpholine-4-carbonyl)phenyl)amino)-2H-1,2,3-triazole-4-carboxamide]
0.1 to 1 | 0.01 to 0.1 | 0.01 to 0.1 | N#Cc1cccc(F)c1-n1nc(Nc2ccc(C(=O)N3CC[C@@H](F)C3)cc2)c(C(N)=O)n1 [compound 164, (R)-2-(2-cyano-6-fluorophenyl)-5-((4-(3-fluoropyrrolidine-1-carbonyl)phenyl)amino)-2H-1,2,3-triazole-4-carboxamide]
0.1 to 1 | 0.01 to 0.1 | 0.01 to 0.1 | NC(=O)c1nn(-c2c(Cl)ccc(F)c2F)nc1Nc1ccc(C(=O)N2CC[C@@H](F)C2)cc1 [compound 167, (R)-2-(6-chloro-2,3-difluorophenyl)-5-((4-(3-fluoropyrrolidine-1-carbonyl)phenyl)amino)-2H-1,2,3-triazole-4-carboxamide]
0.1 to 1 | < 0.01 | < 0.01 | N=S1(=O)CCN(C(=O)c2ccc(Nc3nn(-c4c(Cl)cccc4Cl)nc3C(N)=O)cc2)CC1 [compound 169, 2-(2,6-dichlorophenyl)-5-((4-(1-imino-1-oxidothiomorpholine-4-carbonyl)phenyl)amino)-2H-1,2,3-triazole-4-carboxamide]
0.1 to 1 | < 0.01 | < 0.01 | CN=S1(=O)CCN(C(=O)c2ccc(Nc3nn(-c4c(Cl)cccc4Cl)nc3C(N)=O)cc2)CC1 [compound 171, 2-(2,6-dichlorophenyl)-5-((4-(1-(methylimino)-1-oxidothiomorpholine-4-carbonyl)phenyl)amino)-2H-1,2,3-triazole-4-carboxamide]
0.1 to 1 | 0.01 to 0.1 | 0.1 to 1 | NC(=O)c1nn(-c2c(Cl)cccc2Cl)cc1Nc1ccc(-c2nncn2CC(F)(F)F)cc1 [compound 210, 1-(2,6-dichlorophenyl)-4-((4-(4-(2,2,2-trifluoroethyl)-4H-1,2,4-triazol-3-yl)phenyl)amino)-1H-pyrazole-3-carboxamide]
0.1 to 1 | < 0.01 | 0.01 to 0.1 | Cn1nnnc1-c1ccc(Nc2cn(-c3c(Cl)cccc3Cl)nc2C(N)=O)cc1 [compound 238, 1-(2,6-dichlorophenyl)-4-((4-(1-methyl-1H-tetrazol-5-yl)phenyl)amino)-1H-pyrazole-3-carboxamide]
0.1 to 1 | < 0.01 | < 0.01 | NC(=O)c1nn(-c2c(Cl)cccc2Cl)cc1Nc1ccc(C(=O)N2CCS(=O)(=O)CC2)cc1 [compound 451, 1-(2,6-dichlorophenyl)-4-((4-(1,1-dioxidothiomorpholine-4-carbonyl)phenyl)amino)-1H-pyrazole-3-carboxamide]
0.1 to 1 | < 0.01 | 0.01 to 0.1 | N#Cc1cccc(Cl)c1-n1cc(Nc2ccc(C(=O)N3CCS(=O)(=O)CC3)cc2)c(C(N)=O)n1 [compound 457, 1-(2-chloro-6-cyanophenyl)-4-((4-(1,1-dioxidothiomorpholine-4-carbonyl)phenyl)amino)-1H-pyrazole-3-carboxamide]
